{
  "source": "paper PMC9103758",
  "about": "(International Journal of Molecular Sciences, 2022)",
  "type_in_all_cases": "cell-based",
  "key": {"ANO1": {"target": "T1, ANO1 (Homo sapiens, UniProt Q5XXA6, DEL476-501)", "T1 construct": "expressed in transfected cells; host or cells: Fisher rat thyroid (FRT) cells; The YFP assay uses FRT-ANO1-YFP cells, which also carry the halide sensor", "T1 sequence (Q5XXA6 with tags, fused parts or gaps isoform Q5XXA6-5 DEL539-564)": "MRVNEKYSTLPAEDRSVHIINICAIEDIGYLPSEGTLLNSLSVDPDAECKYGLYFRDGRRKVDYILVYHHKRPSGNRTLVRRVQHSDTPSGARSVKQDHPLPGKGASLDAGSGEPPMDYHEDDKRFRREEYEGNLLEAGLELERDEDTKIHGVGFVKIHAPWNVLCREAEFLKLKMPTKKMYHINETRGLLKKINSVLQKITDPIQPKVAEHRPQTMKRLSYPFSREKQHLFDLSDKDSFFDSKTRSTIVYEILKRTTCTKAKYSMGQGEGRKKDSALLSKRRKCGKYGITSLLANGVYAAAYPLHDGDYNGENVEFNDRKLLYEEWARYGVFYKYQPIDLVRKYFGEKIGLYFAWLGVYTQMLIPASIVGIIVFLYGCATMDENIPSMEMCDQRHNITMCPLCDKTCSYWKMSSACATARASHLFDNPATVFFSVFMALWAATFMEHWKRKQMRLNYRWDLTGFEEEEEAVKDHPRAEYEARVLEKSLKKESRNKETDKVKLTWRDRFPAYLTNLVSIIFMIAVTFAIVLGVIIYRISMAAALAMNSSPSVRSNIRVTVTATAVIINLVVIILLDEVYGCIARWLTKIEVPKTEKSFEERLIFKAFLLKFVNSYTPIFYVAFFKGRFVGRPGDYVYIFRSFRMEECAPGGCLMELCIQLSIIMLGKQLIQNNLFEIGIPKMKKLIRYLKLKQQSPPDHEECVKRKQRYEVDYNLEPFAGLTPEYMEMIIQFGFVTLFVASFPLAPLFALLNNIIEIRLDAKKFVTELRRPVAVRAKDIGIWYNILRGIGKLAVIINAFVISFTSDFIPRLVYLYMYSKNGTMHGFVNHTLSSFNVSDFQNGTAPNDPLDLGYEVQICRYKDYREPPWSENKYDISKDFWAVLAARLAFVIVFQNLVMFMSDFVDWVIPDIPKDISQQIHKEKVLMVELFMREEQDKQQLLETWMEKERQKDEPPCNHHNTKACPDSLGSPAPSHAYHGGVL", "assay": "YFP fluorescence quenching assay for ANO1 activity in FRT-ANO1 cells", "conditions": "ATP 100 μM, n = 4", "method": "Figure 2 Inhibitory effects of VI-101, VI-201 and VI-301 on VRAC and ANO1. (A–C) Representative YFP fluorescence traces for VRAC activity. LN215 cells were treated with the indicated concentrations of VI-101, VI-201 and VI-301 with hypotonic solution for 5 min. (D) Dose-response curve of VRAC inhibition (mean ± S.E., n = 4). (E–G) Representative YFP fluorescence traces for ANO1 activity. […]. (H) Dose-response curve of ANO1 inhibition (mean ± S.E., n = 4).\nHuman ANO1(abc) expressing Fisher rat thyroid (FRT) cells, ANO2 expressing FRT cells, and human CFTR expressing FRT cells were cultured as described in a previous study. LN215 cells were stably transfected with the halide sensor YFP-F46L/H148Q/I152 and NIH-3T3 cells cultured in DMEM were supplemented with 10% FBS, 2 mM L-glutamine, 100 units/mL penicillin, and 100 μg/mL streptomycin. HEK293T cells were stably transfected with the human Kv11.1 (hERG) and cultured in DMEM supplemented with 10% FBS, 2 mM L-glutamine, 100 units/mL penicillin, and 100 μg/mL streptomycin. PC3, HT29, and HeLa cells were stably transfected with the halide sensor YFP-F46L/H148Q/I152 and cultured in RPMI 1640 supplemented with 10% FBS, 2 mM L-glutamine, 100 units/mL penicillin, and 100 μg/mL streptomycin. […]"}, "NIH-3T3 cells": {"test_system": "NIH-3T3 cells", "assay": "Cell viability (MTS/MTT) in NIH-3T3 cells", "conditions": "24 h, up to/at 30 μM", "method": "[…]. (A) Structure of VI-116. (B) Representative YFP fluorescence traces. The inhibitory effects of VI-116 on VRAC activity were determined using YFP fluorescence assay in LN215 cells. VRAC was activated by application of […] solution for 5 min. (C) Summary of VRAC dose-response (mean ± S.E., n = 4). (D) Summary of VRAC dose−response with 10% FBS (mean ± S.E., n = 4). […].\nNIH-3T3 cells were plated on 96-well microplates. After 24 h incubation, cells were treated with VI-116 or DCPIB and incubated for 24 h. The culture medium and the compounds were changed every 12 h. To assess cell proliferation, the cells were incubated with MTS for 1 h. The soluble formazan produced by the cellular reduction of MTS was quantified by measuring the absorbance at 490 nm with an Infinite M200 (Tecan, Grödig, Austria) microplate reader. MTS assay was performed using a CellTiter 96 Aqueous One Solution Cell Proliferation Assay kit (Promega, Madison, WI, USA)."}, "[1]": {"target": "T2, VRAC-mediated chloride current (ICl, swell) in LN215 cells (Homo sapiens, UniProt Q8IWT6)", "T2 construct": "endogenous in cells; host or cells: LN215 human glioma cells stably expressing the halide sensor YFP-F46L/H148Q/I152L", "T2 sequence (Q8IWT6 1-810)": "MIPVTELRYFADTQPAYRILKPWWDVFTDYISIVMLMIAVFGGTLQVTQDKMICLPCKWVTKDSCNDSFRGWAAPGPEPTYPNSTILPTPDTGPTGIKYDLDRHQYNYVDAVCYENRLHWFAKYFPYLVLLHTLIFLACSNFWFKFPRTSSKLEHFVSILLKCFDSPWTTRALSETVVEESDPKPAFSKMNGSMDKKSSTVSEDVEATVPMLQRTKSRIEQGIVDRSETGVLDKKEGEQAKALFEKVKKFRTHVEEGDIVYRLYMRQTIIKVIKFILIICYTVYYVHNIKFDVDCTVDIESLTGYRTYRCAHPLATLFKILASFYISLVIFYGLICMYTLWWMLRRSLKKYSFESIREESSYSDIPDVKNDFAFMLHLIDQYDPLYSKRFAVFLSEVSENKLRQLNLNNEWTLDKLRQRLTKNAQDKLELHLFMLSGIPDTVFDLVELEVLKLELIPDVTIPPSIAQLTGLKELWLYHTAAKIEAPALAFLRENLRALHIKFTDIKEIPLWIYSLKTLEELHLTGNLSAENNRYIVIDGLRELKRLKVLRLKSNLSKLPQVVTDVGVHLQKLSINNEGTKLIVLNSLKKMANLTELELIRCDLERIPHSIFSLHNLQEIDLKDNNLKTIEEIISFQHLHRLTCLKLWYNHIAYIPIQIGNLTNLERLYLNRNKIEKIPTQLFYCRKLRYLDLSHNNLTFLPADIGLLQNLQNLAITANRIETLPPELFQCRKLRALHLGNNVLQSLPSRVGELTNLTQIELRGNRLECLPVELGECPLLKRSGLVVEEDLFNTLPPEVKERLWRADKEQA", "assay": "Whole-cell voltage-clamp of ICl,swell in LN215 cells", "conditions": "dose-dependent", "experimental": "(A) Whole-cell membrane currents were recorded at a holding potential of −50 mV by voltage steps ranging from −120 to 120 mV (in steps of 20 mV) in HEK293T cells. […] (C) Whole-cell VRAC currents were recorded at a holding potential of −50 mV by voltage steps ranging from −100 to 100 mV (in steps of 20 mV) in LN215 cells.\nFor volume-regulated anion channel (VRAC) currents measurement, the isotonic bath solution contained (in mM): 150 NaCl, 6 KCL, 1.5 CaCl2, 1 MgCl2, 10 glucose, 1 HEPES, and pH 7.4 with NaOH (320 mOsm). […] The pipette solution contained (in mM): 40 CsCl, 100 Cs-methanesulfonate, 0.5 EGTA, 1 MgCl2, 1.9 CaCl2, 5 EGTA, 4 Tris−ATP, 10 HEPES, and pH 7.2 with CsOH (290 mOsm). Pipettes were pulled from borosilicate glass and had resistances of 3–5 MΩ after fire polishing. Seal resistances were between 3 and 10 GΩ. The liquid junction potential (~2.4 mV) was not corrected. After establishing the whole-cell configuration, whole-cell capacitance and series resistance were compensated with the amplifier circuitry. VRAC was activated by exposing LN215 cells to a 25% hypotonic bath solution. Whole-cell currents were elicited by applying hyperpolarizing and depolarizing voltage pulses from a holding potential of 0 mV to potentials between −100 mV and +100 mV or −120 mV and +120 mV in steps of 20 mV. Recordings were made at room temperature. […]"}},
  "data": [
    {"molecule": "COc1cccc(C(c2c(O)c3ccccc3oc2=O)c2c(O)c3ccccc3oc2=O)c1O", "note": "[VI-116, 3,3′-((2-hydroxy-3-methoxyphenyl)methylene)bis(4-hydroxy-2H-chromen-2-one)]", "values": [
      {"measurement": "IC50", "setting": "ANO1", "result": 39.1, "unit": "µM"},
      {"measurement": "effect on cell viability", "setting": "NIH-3T3 cells", "result": "did not affect cell viability"},
      {"measurement": "effect on hypotonic perfusion activated ICl, swell", "setting": "[1]", "result": "completely blocked"}
    ]}
  ]
}
